From PMC3274751 (ACS medicinal chemistry letters, 2011)

What was measured:
MeV-Alaska = test: Viral CPE inhibition; conditions: compared with BM-1
Vero cells = test: Cytotoxicity in Vero cells
actively dividing cells = conditions: cited from earlier work

| Structure (SMILES) | fold reduction of potency relative to BM-1 (MeV-Alaska) | acute cytotoxicity (Vero cells) | effect on cell proliferation (actively dividing cells) |
| --- | --- | --- | --- |
| COc1ccc(-n2c(SC(C)C(=O)Nc3cc(C)nn3C)nc3ccccc32)cc1 (centres unmarked) [Compound 6j] | 2 fold | – | – |
| COc1ccc(-n2c(SC(C)C(=O)Nc3nc(C)cs3)nc3ccccc32)cc1 (centres unmarked) [Compound 6m] | 10 fold | – | – |
| COc1ccc(-n2c(SC(C)C(=O)Nc3cc(C)no3)nc3ccccc32)cc1 (centres unmarked) [Compound 6n] | 2 fold | – | – |
| COc1ccc(-n2c(SC(C)C(=O)Nc3ccc(C)cc3Cl)nc3ccccc32)cc1 (centres unmarked) [Compound 6p] | – | does not display any detectable acute cytotoxicity | cytostatic effect |
